Measured values reported in patent US7320996B2, “Indolinone protein kinase inhibitors and cyclooxygenase inhibitors for use in combination therapy for the treatment of cancer” (Sugen, Inc, priority 2001, dated 2008).
Several values for one entry are separate records, joined by “and”; a condition that tells them apart may be missing. Equal entries are not always repeated. Where two headings read alike, the source gives them in different places.

Tests used:
[1] = system: HT-29 human colon cancer cells; assay: HT-29 Model; assay type: in vivo, nude mice
Description: Mice were injected subcutaneously in the left paw (1×10^6 tumor cells suspended in 30% Matrigel) and tumor volume was evaluated using a phlethysmometer twice a week for 30-60 days. Implantation of human colon cancer cells (HT-29) into nude mice produces tumors that will reach 0.6-2 ml between 30-50 days. […] The data are expressed as the mean+/−SEM. Student's and Mann-Whitney tests were used to assess differences between means using the InStat software package.
The efficacy of both agents were determined by measuring tumor volume.

[2] = system: Lewis Lung tumors; assay: Lewis Lung Model; assay type: in vivo, mice
Description: Mice were injected subcutaneously in the left paw (1×10^6 tumor cells suspended in 30% Matrigel) and tumor volume was evaluated using a phlethysmometer twice a week for 30-60 days. […] The data are expressed as the mean+/−SEM. Student's and Mann-Whitney tests were used to assess differences between means using the InStat software package. […] Analysis of lung metastasis was done in all the animals by counting metastasis in a stereomicroscope and by histochemical analysis of consecutive lung sections.

[3] = system: HT29 cells; assay: cells; settings: Homo sapiens, HT-29
[4] = system: B16-F1 cells; assay: B16-F1 mouse melanoma lung colonization model; assay type: in vivo, athymic mice; settings: 80 mg/kg/day oral for 24 days; P <0.001
Excerpt: In addition to supporting the sustained growth of solid primary tumors, angiogenesis is also an essential component supporting the development of disseminated disease due to metastasis from the primary tumor. […] In this model, B16-F1 cells inoculated intravenously via the tail vein of athymic mice colonize the lungs and form tumors. […] .
Briefly, the results shown in Table 8 were obtained using athymic mice that had been inoculated with B16-F1 tumor cells (5×10^5 cells/mouse) via the tail vein. […] . At the end of the treatment period, the mice were sacrificed and their lungs removed and weighed. […] .

[5] = system: Colo205 tumors; assay: Colo205 subcutaneous xenograft
[6] = system: NCI-H460 tumors; assay: NCI-H460 subcutaneous xenograft
[7] = system: HUVECs; assay: VEGF-mediated HUVEC survival (PARP cleavage); assay type: cell-based, human; settings: PARP cleavage as readout for apoptosis
Description: In these experiments, cleavage of the caspase 3 substrate poly-ADP-ribosyl polymerase (PARP) was used as a readout for apoptosis.

[8] = system: SF763T tumors; assay: SF763T subcutaneous xenograft; assay type: in vivo, athymic mice
[9] = target: T1, c-kit (Homo sapiens, UniProt P10721); assay: SCF-stimulated c-kit phosphorylation in AML blasts of patients; assay type: cell-based; settings: AML blasts from peripheral blood of patients
T1 construct: was determined using MO7E cells that express this receptor; endogenous in cells; host or cells: MO7E
T1 sequence (P10721 26-976): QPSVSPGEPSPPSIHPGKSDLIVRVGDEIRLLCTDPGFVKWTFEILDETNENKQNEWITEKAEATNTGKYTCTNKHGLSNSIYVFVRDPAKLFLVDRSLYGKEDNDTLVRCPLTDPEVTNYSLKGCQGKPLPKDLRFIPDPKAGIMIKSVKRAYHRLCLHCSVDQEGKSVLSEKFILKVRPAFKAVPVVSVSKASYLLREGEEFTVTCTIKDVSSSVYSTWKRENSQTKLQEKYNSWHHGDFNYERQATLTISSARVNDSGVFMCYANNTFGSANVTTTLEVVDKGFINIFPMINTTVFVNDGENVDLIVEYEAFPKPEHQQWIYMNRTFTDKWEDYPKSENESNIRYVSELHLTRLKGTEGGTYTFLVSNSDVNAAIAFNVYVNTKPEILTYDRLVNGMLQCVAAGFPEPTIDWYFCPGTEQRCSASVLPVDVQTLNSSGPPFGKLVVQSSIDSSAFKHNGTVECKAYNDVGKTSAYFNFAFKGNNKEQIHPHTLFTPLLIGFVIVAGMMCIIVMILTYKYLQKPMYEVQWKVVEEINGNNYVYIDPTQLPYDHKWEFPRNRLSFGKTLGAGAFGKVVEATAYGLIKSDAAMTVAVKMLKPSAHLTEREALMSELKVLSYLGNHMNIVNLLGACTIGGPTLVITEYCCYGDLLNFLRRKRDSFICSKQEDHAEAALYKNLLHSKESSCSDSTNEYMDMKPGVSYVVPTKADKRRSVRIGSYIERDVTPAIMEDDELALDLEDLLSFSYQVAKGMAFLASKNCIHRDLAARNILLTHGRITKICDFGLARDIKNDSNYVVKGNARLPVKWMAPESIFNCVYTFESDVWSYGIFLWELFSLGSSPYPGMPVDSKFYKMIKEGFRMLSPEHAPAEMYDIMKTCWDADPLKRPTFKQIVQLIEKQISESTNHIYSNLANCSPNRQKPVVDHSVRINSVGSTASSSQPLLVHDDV

[10] = system: SF767T cells; assay: cells; settings: Homo sapiens
[11] = system: A431 tumors
[12] = system: NCI-H460 cells; assay: cells; settings: Homo sapiens
[13] = system: A549 cells; assay: cells; settings: Homo sapiens
[14] = target: T2, EGFR (A431 cell lysate) (Homo sapiens, UniProt P00533); assay: EGFR bioassay, ELISA; assay type: biochemical; settings: read-out: bio EGF IC50
T2 construct: A431 cell lysate (SUGEN, Inc.); host or cells: A431
T2 sequence (P00533 25-1210): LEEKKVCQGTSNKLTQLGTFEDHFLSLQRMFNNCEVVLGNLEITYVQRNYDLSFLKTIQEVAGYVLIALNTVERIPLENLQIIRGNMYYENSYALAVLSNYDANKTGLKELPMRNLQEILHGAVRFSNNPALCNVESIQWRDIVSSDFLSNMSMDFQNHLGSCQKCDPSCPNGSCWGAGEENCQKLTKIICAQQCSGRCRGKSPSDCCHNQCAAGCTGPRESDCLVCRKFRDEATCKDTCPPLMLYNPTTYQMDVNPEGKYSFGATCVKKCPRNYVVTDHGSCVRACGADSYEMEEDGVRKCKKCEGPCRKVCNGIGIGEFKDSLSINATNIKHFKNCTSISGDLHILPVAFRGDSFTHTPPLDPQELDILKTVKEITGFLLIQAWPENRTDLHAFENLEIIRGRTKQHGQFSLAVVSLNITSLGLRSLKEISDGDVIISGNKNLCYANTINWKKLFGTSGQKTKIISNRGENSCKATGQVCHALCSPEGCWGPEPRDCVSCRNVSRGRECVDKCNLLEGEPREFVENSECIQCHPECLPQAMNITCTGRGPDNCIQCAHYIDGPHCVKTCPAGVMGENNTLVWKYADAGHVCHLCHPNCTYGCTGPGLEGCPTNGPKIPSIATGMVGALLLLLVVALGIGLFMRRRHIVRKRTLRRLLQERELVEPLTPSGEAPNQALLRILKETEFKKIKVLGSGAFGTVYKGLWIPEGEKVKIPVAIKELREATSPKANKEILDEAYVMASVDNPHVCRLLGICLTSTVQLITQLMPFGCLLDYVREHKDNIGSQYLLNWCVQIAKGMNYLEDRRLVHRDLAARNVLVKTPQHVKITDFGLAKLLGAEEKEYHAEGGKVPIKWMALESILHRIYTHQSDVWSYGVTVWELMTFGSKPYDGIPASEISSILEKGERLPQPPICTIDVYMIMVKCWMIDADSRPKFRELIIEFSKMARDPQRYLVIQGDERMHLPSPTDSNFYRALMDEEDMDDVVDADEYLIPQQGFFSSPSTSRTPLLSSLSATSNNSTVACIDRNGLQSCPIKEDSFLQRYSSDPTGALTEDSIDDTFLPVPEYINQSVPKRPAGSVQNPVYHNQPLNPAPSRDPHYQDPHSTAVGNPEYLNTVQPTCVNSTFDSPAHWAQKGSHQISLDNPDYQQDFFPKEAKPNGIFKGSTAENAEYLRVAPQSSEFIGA
Description: This assay is used to the in vitro kinase activity of FGF1-R in an ELISA assay.
Corning 96-well Elisa plates. • 2. SUMOL1 monoclonal anti-EGFR antibody (SUGEN, Inc.). • 3. PBS • 4. TBST Buffer • 5. Blocking Buffer: for 100 ml, mix 5.0 g Carnation Instant Non-fat Milk® with 100 ml of PBS. • 6. A431 cell lysate (SUGEN, Inc.). • 7. TBS Buffer: • 8.
bring to 1 liter total volume with dH2O. • 9. […] This reagent should be made up immediately prior to use and kept on ice. • 10. 1.0 mM MnCl2. • 11. […] Prepare just prior to use, keep on ice. • 12. NUNC 96-well V bottom polypropylene plates. • 13. EDTA. • 14. Rabbit polyclonal anti-phosphotyrosine serum (SUGEN, Inc.). • 15. Goat anti-rabbit IgG peroxidase conjugate (Biosource Cat. No. ALI0404). • 16. ABTS. • 17. 30% Hydrogen peroxide. • 18. ABTS/H2O2 • 19. 0.2 M HCl. Procedure: • 1. Coat Corning 96 well ELISA plates with 0.5 μg SUMO1 in 100 μl PBS per well, store overnight at 4° C. • 2. Remove unbound SUMO1 from wells by inverting plate to remove liquid. Wash 1×with dH2O. Pat the plate on a paper towel to remove excess liquid. • 3. Add 150 μl of Blocking Buffer to each well. Incubate, with shaking, for 30 min. at room temperature. • 4. Wash plate 3×with deionized water, then once with TBST. Pat plate on a paper towel to remove excess liquid and bubbles. • 5. Dilute lysate in PBS (7 μg lysate/100 μl PBS). • 6. Add 100 μl of diluted lysate to each well. Shake at room temperature for 1 hr. • 7. Wash plates as in 4, above. • 8. Add 120 μl TBS to ELISA plate containing captured EGFR. • 9. […] Add 13.5 μl diluted test compound to ELISA plate. To control wells, add 13.5 μl TBS in 10% DMSO. • 11. Incubate, with shaking, for 30 minutes at room temperature. • 12. Add 15 μl phosphorylation mix to all wells except negative control well. Final well volume should be approximately 150 μl with 3 μM ATP/5 mM MnCl2 final concentration in each well. Incubate with shaking for 5 minutes. • 13. Stop reaction by adding 16.5 μl of EDTA solution while shaking. Shake for additional 1 min. • 14. Wash 4×with deionized water, 2×with TBST. • 15. Add 100 μl anti-phosphotyrosine (1:3000 dilution in TBST) per well. Incubate, with shaking, for 30-45 min. at room temperature. • 16. Wash as in 4, above. • 17. […] Incubate with shaking for 30 min. at room temperature. • 18. Wash as in 4, above. • 19. Add 100 μl of ABTS/H2O2 solution to each well. • 20. Incubate 5 to 10 minutes with shaking. Remove any bubbles. • 21. If necessary, stop reaction by adding 100 μl 0.2 M HCl per well. • 22.

[15] = target: EGFR (Homo sapiens, UniProt P00533); assay: cell EGF assay; assay type: cell-based
EGFR, sequence (P00533 25-1210, species assumed): as the sequence (P00533 25-1210) above
Description: Several of the assays described herein are performed in an ELISA (Enzyme-Linked Immunosorbent […]) format (Voller, et al, 1980, “Enzyme-Linked Immunosorbent Assay,” Manual of Clinical Immunology, 2d ed., Rose and Friedman, Am. Soc. Of Microbiology, Washington, D.C., pp. 359-371). The general procedure is as follows: a compound of Formula (I) is introduced to cells expressing the test kinase, either naturally or recombinantly, for a selected period of time after which, if the test kinase is a receptor, a ligand known to activate the receptor is added. The cells are lysed and the lysate is transferred to the wells of an ELISA plate previously coated with a specific antibody recognizing the substrate of the enzymatic phosphorylation reaction. Non-substrate components of the cell lysate are washed away and the amount of phosphorylation on the substrate is detected with an antibody specifically recognizing phosphotyrosine compared with control cells that were not contacted with a test compound.
Specifically, the results shown indicate the concentration of a test compound needed to cause a 50% reduction of the activity of the target PTK. Bioassays which have been or can be used to evaluate compounds are described in detail below.

[16] = target: T3, HER-2 kinase (EGFr/HER-2 chimera/3T3-C7 cell line) (Homo sapiens, UniProt P04626); assay: Cellular HER-2 kinase assay, whole-cell ELISA; assay type: cell-based; settings: read-out: Her2 Kinase IC50
T3 construct: fused on or other part: EGFR extracellular part, stimulated by EGF and captured by the anti-EGFR antibody SUMO1; P00533 (Epidermal growth factor receptor)
T3 sequence (P04626 720-987 limits assumed, change not shown): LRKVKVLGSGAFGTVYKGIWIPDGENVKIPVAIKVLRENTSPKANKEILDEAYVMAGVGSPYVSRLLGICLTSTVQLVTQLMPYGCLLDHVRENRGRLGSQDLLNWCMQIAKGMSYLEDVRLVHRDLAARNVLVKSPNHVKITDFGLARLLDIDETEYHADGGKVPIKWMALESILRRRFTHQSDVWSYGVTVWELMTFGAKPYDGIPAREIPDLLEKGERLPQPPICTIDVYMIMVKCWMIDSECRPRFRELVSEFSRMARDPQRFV
Description: This assay is used to measure HER-2 kinase activity in whole cells in an ELISA format.
Fetal Bovine Serum (FBS, GIBCO Catalog #16000-044), heat inactivated in a water bath for 30 min. at 56° C. • 3. […] PBS. • 9. […] Corning 96-well ELISA Plates. • 12. NUNC 96-well V bottom polypropylene plates. • 13. […] SUMO 1: monoclonal anti-EGFR antibody (SUGEN, Inc.). • 15. TBST Buffer. • 16. Blocking Buffer: 5% Carnation Instant Milk® in PBS. • 17. […] Suspend powder in 100 uL of 10 mM HCl. Add 100 uL 10 mM NaOH. Add 800 uL PBS and transfer to an Eppendorf tube, store at −20° C. until ready to use. • 18. […] EDTA. • 20. Na3VO4. […] Boil in microwave for one minute (solution becomes clear). • Cool to room temperature. Adjust pH to 10. Repeat heating/cooling cycle until pH remains at 10. • 21. 200 mM Na4P2O7. • 22. Rabbit polyclonal antiserum specific for phosphotyrosine (anti-Ptyr antibody, SUGEN, Inc.). • 23. Affinity purified antiserum, goat anti-rabbit IgG antibody, peroxidase conjugate (Biosource Cat #ALI0404). • 24. ABTS Solution. • 25. 30% Hydrogen peroxide solution. • 26. ABTS/H2O2. • 27. 0.2 M HCl. Procedure: • 1. Coat Corning 96 well ELISA plates with SUMO1 at 1.0 ug per well in PBS, 100 ul final volume/well. Store overnight at 4° C. • 2. On day of use, remove coating buffer and wash plate 3 times with dH2O and once with TBST buffer. All washes in this assay should be done in this manner, unless otherwise specified. • 3. Add 100 ul of Blocking Buffer to each well. Incubate plate, with shaking, for 30 min. at room temperature. Just prior to use, wash plate. • 4. Use EGFr/HER-2 chimera/3T3-C7 cell line for this assay. • 5. Choose dishes having 80-90% confluence. Collect cells by trypsinization and centrifuge at 1000 rpm at room temperature for 5 min. • 6. Resuspend cells in starve medium and count with trypan blue. Viability above 90% is required. Seed cells in starve medium at a density of 2,500 cells per well, 90 ul per well, in a 96 well microtiter plate. Incubate seeded cells overnight at 37° under 5% CO2. • 7. Start the assay two days after seeding. • 8. Test compounds are dissolved in 4% DMSO. Samples are then further diluted directly on plates with starve-DMEM. Typically, this dilution will be 1:10 or greater. […] Incubate at 37° C. for 10 min. • 13. Remove test compound, EGF, and DMEM. Wash cells once with PBS. • 14. Transfer HNTG* to cells, 100 ul per well. Place on ice for 5 minutes. • Meanwhile, remove blocking buffer from ELISA plate and wash. • 15. Scrape cells from plate with a micropipettor and homogenize cell material by repeatedly aspirating and dispensing the HNTG* lysis buffer. Transfer lysate to a coated, blocked, washed ELISA plate. Or, use a Costar transfer cartridge to transfer lysate to the plate. • 16. Incubate, with shaking, at room temperature for 1 hr. • 17. Remove lysate, wash. Transfer freshly diluted anti-Ptyr antibody (1:3000 in TBST) to ELISA plate, 100 ul per well. • 18. Incubate, with shaking, at room temperature, for 30 min. • 19. Remove anti-Ptyr antibody, wash. Transfer freshly diluted BIOSOURCE antibody to ELISA plate (1:8000 in TBST, 100 ul per well). • 20. Incubate, with shaking, at room temperature for 30 min. • 21. Remove BIOSOURCE antibody, wash. Transfer freshly prepared ABTS/H2O2 solution to ELISA plate, 100 ul per well. • 22. […] Remove any bubbles. • 23. Stop reaction with the addition of 100 ul of 0.2M HCl per well. • 24.

[17] = target: T4, PDGFR-β (NIH 3T3 cell lysate) (Homo sapiens, UniProt P09619); assay: PDGFR bioassay, ELISA; assay type: biochemical; settings: read-out: bio PDGF IC50
T4 construct: host or cells: NIH 3T3
T4 sequence (P09619 33-1106): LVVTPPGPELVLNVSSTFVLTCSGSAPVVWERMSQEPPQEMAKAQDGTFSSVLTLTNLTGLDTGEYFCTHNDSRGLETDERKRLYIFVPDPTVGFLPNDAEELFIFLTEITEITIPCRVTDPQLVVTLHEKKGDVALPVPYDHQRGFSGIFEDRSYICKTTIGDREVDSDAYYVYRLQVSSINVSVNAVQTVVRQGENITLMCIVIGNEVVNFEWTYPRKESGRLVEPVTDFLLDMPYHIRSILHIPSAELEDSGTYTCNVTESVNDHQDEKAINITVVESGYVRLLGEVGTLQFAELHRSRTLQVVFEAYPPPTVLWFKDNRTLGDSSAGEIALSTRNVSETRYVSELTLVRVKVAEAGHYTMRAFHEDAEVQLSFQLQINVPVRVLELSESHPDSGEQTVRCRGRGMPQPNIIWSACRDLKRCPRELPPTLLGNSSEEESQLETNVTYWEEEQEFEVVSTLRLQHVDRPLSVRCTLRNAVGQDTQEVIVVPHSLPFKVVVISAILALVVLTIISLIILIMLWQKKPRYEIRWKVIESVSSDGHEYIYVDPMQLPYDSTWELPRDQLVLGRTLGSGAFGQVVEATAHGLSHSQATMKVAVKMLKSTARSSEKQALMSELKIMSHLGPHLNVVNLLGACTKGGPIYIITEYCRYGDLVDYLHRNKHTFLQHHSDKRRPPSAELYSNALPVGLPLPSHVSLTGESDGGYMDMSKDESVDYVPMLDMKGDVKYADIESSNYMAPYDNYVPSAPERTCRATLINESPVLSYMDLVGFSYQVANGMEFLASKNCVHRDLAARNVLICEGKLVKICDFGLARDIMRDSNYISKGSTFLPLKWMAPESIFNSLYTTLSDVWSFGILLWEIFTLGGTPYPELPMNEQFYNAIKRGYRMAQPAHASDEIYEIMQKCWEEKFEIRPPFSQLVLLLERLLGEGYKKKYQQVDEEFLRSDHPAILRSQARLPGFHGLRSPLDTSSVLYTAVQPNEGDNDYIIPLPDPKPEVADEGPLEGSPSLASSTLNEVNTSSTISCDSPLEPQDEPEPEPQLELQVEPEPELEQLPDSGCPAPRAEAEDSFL
Description: Corning 96-well Elisa plates • 2. 28D4C10 monoclonal anti-PDGFR antibody (SUGEN, Inc.). • 3. PBS. • 4. TBST Buffer. • 5. Blocking Buffer (same as for EGFR bioassay). • 6. PDGFR-β expressing NIH 3T3 cell lysate (SUGEN, Inc.). • 7. TBS Buffer. • 8. TBS+10% DMSO. • 9. ATP. • 10. MnCl2. • 11. Kinase buffer phosphorylation mix: for 10 ml, mix 250 μl 1M TRIS, 200 μl 5M NaCl, 100 μl 1M MnCl2 and 50 μl 100 mM Triton X-100 in enough dH2O to make 10 ml. • 12. NUNC 96-well V bottom polypropylene plates. • 13. EDTA. • 14. Rabbit polyclonal anti-phosphotyrosine serum (SUGEN, Inc.). • 15. Goat anti-rabbit IgG peroxidase conjugate (Biosource Cat. No. ALI0404). • 16. ABTS. • 17. Hydrogen peroxide, 30% solution. • 18. ABTS/H2O2. • 19. 0.2 M HCl. Procedure: • 1. Coat Corning 96 well ELISA plates with 0.5 μg 28D4C10 in 100 μl PBS per well, store overnight at 4° C. • 2. Remove unbound 28D4C10 from wells by inverting plate to remove liquid. • Wash 1×with dH2O. Pat the plate on a paper towel to remove excess liquid. • 3. Add 150 μl of Blocking Buffer to each well. Incubate for 30 min. at room temperature with shaking. • 4. Wash plate 3×with deionized water, then once with TBST. Pat plate on a paper towel to remove excess liquid and bubbles. • 5. Dilute lysate in HNTG (10 μg lysate/100 μl HNTG). • 6. Add 100 μl of diluted lysate to each well. Shake at room temperature for 60 min. • 7. Wash plates as described in Step 4. • 8. Add 80 μl working kinase buffer mix to ELISA plate containing captured PDGFR. • 9. […] Add 10 μl diluted test compound to ELISA plate. To control wells, add 10 μl TBS+10% DMSO. Incubate with shaking for 30 minutes at room temperature. • 11. Add 10 μl ATP directly to all wells except negative control well (final well volume should be approximately 100 μl with 20 μM ATP in each well.) Incubate 30 minutes with shaking. • 12. Stop reaction by adding 10 μl of EDTA solution to each well. • 13. Wash 4×with deionized water, twice with TBST. • 14. Add 100 μl anti-phosphotyrosine (1:3000 dilution in TBST) per well. Incubate with shaking for 30-45 min. at room temperature. • 15. Wash as in Step 4. • 16. […] Incubate with shaking for 30 min. at room temperature. • 17. Wash as in Step 4. • 18. Add 100 μl of ABTS/H2O2 solution to each well. • 19. Incubate 10 to 30 minutes with shaking. Remove any bubbles. • 20. If necessary stop reaction with the addition of 100 μl 0.2 M HCl per well. • 21.

[18] = system: HT-29 human colon cancer cells; assay: HT-29 Model; assay type: in vivo, nude mice; settings: HT-29 assay A

For `Cc1ccc(-c2cc(C(F)(F)F)nn2-c2ccc(S(N)(=O)=O)cc2)cc1` [Celecoxib], the “tumor Volume” value ([1]; 10 ppm in the diet from day 10, day 14) was 0.124 mL, the “tumor Volume” value ([1]; 10 ppm in the diet from day 10, day 22) was 0.25 mL and the “tumor Volume” value ([1]; 10 ppm in the diet from day 10, day 28) was 0.36 mL. The “tumor Volume” value ([1]; 10 ppm in the diet from day 10, day 35) was 0.57 mL, the “tumor Volume” value ([1]; 10 ppm in the diet from day 10, day 42) was 0.89 mL and the “tumor Volume” value ([1]; 10 ppm in the diet from day 10, day 50) was 1.49 mL. The “tumor Volume” value ([1]; 40 ppm in the diet from day 10, day 14) was 0.125 mL, the “tumor Volume” value ([1]; 40 ppm in the diet from day 10, day 22) was 0.19 mL and the “tumor Volume” value ([1]; 40 ppm in the diet from day 10, day 28) was 0.27 mL. The “tumor Volume” value ([1]; 40 ppm in the diet from day 10, day 35) was 0.4 mL, the “tumor Volume” value ([1]; 40 ppm in the diet from day 10, day 42) was 0.68 mL and the “tumor Volume” value ([1]; 40 ppm in the diet from day 10, day 50) was 1.04 mL. For the same compound, the “tumor Volume” value ([1]; 160 ppm in the diet from day 10, day 14) was 0.120 mL, the “tumor Volume” value ([1]; 160 ppm in the diet from day 10, day 22) was 0.14 mL and the “tumor Volume” value ([1]; 160 ppm in the diet from day 10, day 28) was 0.21 mL. The “tumor Volume” value ([1]; 160 ppm in the diet from day 10, day 35) was 0.3 mL, the “tumor Volume” value ([1]; 160 ppm in the diet from day 10, day 42) was 0.49 mL and the “tumor Volume” value ([1]; 160 ppm in the diet from day 10, day 50) was 0.8 mL. The “effect in combination with a cytotoxic agent (cyclophosphamide)” value ([1]; celecoxib in the diet, cytoxin i.p. 50 mg/kg on days 5, 7 and 9) was “positive benefit”, the “effect on lung metastasis” value ([2]; 160 ppm in the diet) was “did not affect” and the “reduction of surface metastasis” value ([2]; 480-3200 ppm in the diet) was “more than 50%”. The “size of the metastasic lesions in the lung” value ([2]; histopathological analysis) was “dose-dependently reduced”.
In the case of `CCN(CC)CCNC(=O)c1c(C)[nH]c(/C=C2\C(=O)Nc3ccc(F)cc32)c1C` [Compound 80], the IC50 [3] is reported as 10 µM, the “% Inhibition (lung weight)” value [4] is reported as 50% and the “% Inhibition” value ([5]; 40 mg/kg daily oral, tumors 400 mm^3 at start, P 0.028) is reported as 84%. The “% Inhibition” value ([5]; 40 mg/kg twice weekly oral, tumors 400 mm^3 at start, NS) was 36%, the “% Inhibition” value ([5]; 80 mg/kg daily oral, tumors 400 mm^3 at start, P 0.039) was 91% and the “% Inhibition” value ([5]; 80 mg/kg once weekly oral, tumors 400 mm^3 at start, NS) was 0%. The “% Inhibition” value ([5]; 80 mg/kg twice weekly oral, tumors 400 mm^3 at start, NS) was 19%, the “tumor response to treatment” value ([5]; 80 mg/kg/day oral) was “regressed” and the “% Inhibition” value ([5]; 160 mg/kg once weekly oral, tumors 400 mm^3 at start, NS) was 17%. For the same compound, the “% Inhibition” value ([5]; 160 mg/kg twice weekly oral, tumors 400 mm^3 at start, P 0.085) was 52%, the “% Inhibition” value ([5]; initial tumor volume 370 mm^3, 80 mg/kg once daily oral, day 54, P 0.028) was 77 (54) % and the “tumor response to treatment” value ([6]; 80 mg/kg/day oral) was “arrested or greatly slowed”. The “% Inhibition” value ([6]; initial tumor volume 300 mm^3, 80 mg/kg once daily oral, day 54, P 0.003) was 61 (54) %, the “effect on VEGF-mediated HUVEC survival” value [7] was “inhibited VEGF-mediated HUVEC survival in a dose-dependent manner” and the “tumor response to treatment” value ([8]; 80 mg/kg/day oral) was “arrested or greatly slowed”. For the same compound, the “% Inhibition” value ([8]; initial tumor volume 550 mm^3, 80 mg/kg once daily oral, day 30, P 0.001) was 53 (30) %, the “PDGFRβ tyrosine phosphorylation in established tumors” value ([8]; oral administration) was “strongly inhibited” and the “levels of phosphorylated (activated) phospholipase C gamma (PLC-γ) in tumors” value ([8]; oral administration) was “reduced”. For the same compound, the SCF-stimulated c-kit phosphorylation [9] was “inhibited”, the IC50 [10] was 7.9 µM and the “tumor response to treatment” value ([11]; 80 mg/kg/day oral) was “regressed”. For the same compound, the “efficacy against established A431 tumors versus 80 mg/kg/day dose” value ([11]; 160 mg/kg/day, preliminary experiments) was “not more efficacious”, the “complete regression of the tumors” value ([11]; initial 100 mm^3, 80 mg/kg/day for 21 days) was “six of the eight animals” and the “% Inhibition of tumor growth” value ([11]; initial tumor volume 100 mm^3, 10 mg/kg/day oral, day 40, P 0.059) was 61 (40) %. For the same compound, the “% Inhibition of tumor growth” value ([11]; initial tumor volume 100 mm^3, 40 mg/kg/day oral, day 40, P 0.015) was 75 (40) %, the “% Inhibition of tumor growth” value ([11]; initial tumor volume 100 mm^3, 80 mg/kg/day oral, day 40, P 0.002) was 93 (40) % and the “% Inhibition of tumor growth” value ([11]; initial tumor volume 400 mm^3, 20 mg/kg/day oral, day 36, P 0.130) was 51 (36) %. For the same compound, the “% Inhibition of tumor growth” value ([11]; initial tumor volume 400 mm^3, 40 mg/kg/day oral, day 36, P 0.003) was 74% and 74 (36) %, the “% Inhibition of tumor growth” value ([11]; initial tumor volume 400 mm^3, 80 mg/kg/day oral, day 36, P 0.001) was 84% and 84 (36) % and the “tumor regrowth after end of treatment” value ([11]; the six animals with complete regression) was “did not regrow during a 110-day observation period”. The “response of regrown tumors to a second round of treatment” value ([11]; two animals with tumors regrown to 2000-3000 mm^3) was “regressed”, the IC50 [12] was 8.9 µM and the IC50 [13] was 9.5 µM.
`Cc1[nH]c(/C=C2\C(=O)Nc3ccc(-c4ccccc4)cc32)c(C)c1C(=O)NCCCn1ccnc1` [Example 58, 2,4-Dimethyl-5-(2-oxo-5-phenyl-1,2-dihydroindol-3-ylidenemethyl)-1H-pyrrole-3-carboxylic Acid (3-imidazol-1-ylpropyl)amide] gave an IC50 [14] greater than 100 µM, an IC50 [15] greater than 100 µM and an IC50 [16] greater than 100 µM.
Work on `CCN(CC)CCNC(=O)c1c(C)[nH]c(/C=C2\C(=O)Nc3cc(-c4cc(Cl)cc(Cl)c4)ccc32)c1C` [Example 62, 5-[6-(3,5-Dichlorophenyl)-2-oxo-1,2-dihydroindol-3-ylidenemethyl]-2,4-dimethyl-1H-pyrrole-3-carboxylic Acid (2-diethylaminoethyl)amide] yielded an IC50 [14] greater than 100 µM, an IC50 [15] greater than 100 µM and an IC50 [16] greater than 100 µM.
Compound `CCN(CC)CCNC(=O)c1c(C)[nH]c(/C=C2\C(=O)Nc3cc(-c4cccnc4)ccc32)c1C` [Example 63, 2,4-Dimethyl-5-(2-oxo-6-pyridin-3-yl-1,2-dihydroindol-3-ylidenemethyl)-1H-pyrrole-3-carboxylic Acid (2-diethylaminoethyl)amide] has an IC50 [15] greater than 100 µM, an IC50 [16] greater than 100 µM and an IC50 [17] of less than 780 nM.
Compound `Cc1cc(C)c(/C=C2\C(=O)N(CN3CCN(C)CC3)c3ccccc32)[nH]1` [Example 205, (3Z)-3-[(3,5-dimethyl-1H-pyrrol-2-yl)-methylidene]-1-[1-(4-methylpiperazinyl)methyl]-dihydro-2H-indol-2-one] has a melting point of 160 to 164 °C.
For `Cc1cc(C)c(/C=C2\C(=O)N(CN3CCCC3)c3ccccc32)[nH]1` [Example 206, (3Z)-3-[(3,5-dimethyl-1H-pyrrol-2-yl)-methylidene]-1-(1-pyrrolidinylmethyl)-1,3-dihydro-2H-indol-2-one], the melting point was 129 to 132 °C.
For `NS(=O)(=O)c1ccc(-n2nc(C(F)(F)F)cc2-c2ccc(Cl)cc2)cc1` [SC-58236, 4-[5-(4-chorophenyl)-3-(trifluoromethyl)-1H-pyrazole-1-yl]benzenesulfonamide], the “formation of lung metastasis” value [18] was “completely inhibited” and the “reduction of tumor volume” value ([1]; HT-29 assay A) was 89%.
In the case of `COc1ccc2c(c1)c(CC(=O)O)c(C)n2C(=O)c1ccc(Cl)cc1` [indomethacin], the “formation of lung metastasis” value [18] is reported as “ineffective” and the “inhibition of tumor formation” value ([1]; 2 mg/kg/day in the drinking water, near the maximum tolerated dose) is reported as 77%.
